Laboratory results: patent US9475783B2, “Antimicrobial agents” (Rutgers, the State University of New Jersey, priority 2012, dated 2016)
Values after ≈ are worked out from the molar mass of the structure shown.

Columns and labels:
MSSA = experiment: Test A antibacterial assay, broth microdilution MIC; type: cell-based; settings: Staphylococcus aureus, growth read after 24 to 48 hours at OD 600 nm
Experimental: Test A. Antibacterial Assay. Antibacterial activity can be determined as per Clinical and Laboratory Standards Institute (CLSI) guidelines using a broth microdilution assay in which log-phase bacteria are grown at 37° C. in appropriate medium containing two-fold serial dilutions of a compound to yield final concentrations ranging from 256 to 0.06 μg/mL. For determination of minimal inhibitory concentration (MIC) values, bacterial growth is monitored after 24 to 48 hours by measuring optical density at 600 nm.

[1] = system: Bacillus subtilis FG347 bacteria; experiment: Test C FtsZ Z-ring assay (GFP-ZapA fluorescence microscopy); type: cell-based; settings: compound at 3 μg/mL
Experimental: Test C. FtsZ Z-Ring Assay.
The impact of a compound on FtsZ Z-ring formation can be determined using a strain of Bacillus subtilis (FG347) that expresses a green fluorescent protein (GFP)-ZapA fusion protein upon induction with xylose. ZapA is known to associate with FtsZ Z-rings in B. subtilis and, thus, serves as a marker for Z-ring formation. In this assay, log-phase FG347 bacteria are treated with differing concentrations of compound for time periods ranging from 1 to 6 hours. At each time point, aliquots are taken from each culture and then viewed with a fluorescence microscope.
Examples 4 and 6-8 were evaluated for their impact on the polymerization of Staphylococcus aureus FtsZ. […] In addition, Example 5 and 7 were also examined for their impact on FtsZ Z-ring formation in Bacillus subtilis FG347 bacteria. […] These collective results highlight the compounds of the invention as FtsZ-targeting antibacterial agents.

[2] = type: in vivo; settings: formulated in 20% DMA, 40% proplyeneglycol in 8% Cremophor-EL; apparent embolitic effect from drug precipitation
Experimental: The literature vehicle reported for formulation of 5-chloro-2-(2,4-difluoro-3-aminocarbonylphenoxy)methylpyridylthiazole for i.v. administration consists of 20% DMA, 40% polyethylene glycol and 40% saline. […] Mice that were treated 15 minutes later with a second injection consisting of 150 μl of this vehicle died. In addition, concentrations of 5-chloro-2-(2,4-difluoro-3-aminocarbonylphenoxy)methylpyridylthiazole at or above 2.2 mg/ml in this vehicle were not completely dissolved and existed as a suspension (in a 28 g mouse this would be 15.7 mg/kg). A number of other formulations with 5-chloro-2-(2,4-difluoro-3-aminocarbonylphenoxy)methyl benzothiazole were tried, such as 20% DMA, 40% proplyeneglycol in 8% Cremophor-EL. […] Because of the limited solubility and the absence of a suitable vehicle, the literature study where it was reported that a 30 mg/kg dose of 5-chloro-2-(2,4-difluoro-3-aminocarbonylphenoxy)methylpyridylthiazole was delivered to mice in a single injection could not be repeated. […] In some instances the addition of 10-30% propylene glycocol did allow for greater retention of solubility of the test compounds. Example 4 was also found to formulate well at a 2.0 mg/ml concentration in 10 mM malic acid with 20% propylene glycol and with 10 mM p-toluenesulphonate alone. Example 6 did formulate well in 10 mM citrate alone at a concentration of 2.0 mg/ml. […]

SMILES | MIC (MSSA) [µg/mL] | bacterial morphology induced [1] | impact on FtsZ Z-ring formation [1] | outcome of mice treated with the formulation [2]
O=C(NCN1CCOCC1)c1c(F)ccc(OCc2nc3cc(Cl)cnc3s2)c1F [Example 7] | 0.5 (≈ 1.1 µM) | elongated, filamentous morphology | inhibit FtsZ Z-ring formation | –
NC(=O)c1c(F)ccc(OCc2nc3cc(Cl)ccc3s2)c1F [5-chloro-2-(2,4-difluoro-3-aminocarbonylphenoxy)methyl benzothiazole] | – | – | – | died within a few minutes
